Experimental data: PubChem BioAssay (NCI)
Several values for one entry are separate records, joined by “and”; a condition that tells them apart may be missing. Identical values can stand only once.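 The compound was tested at five concentrations on cells cultured in 96-well plates, with a 48-hour exposure period. GI50 is the concentration that inhibits growth by half. TGI denotes the concentration required for complete inhibition of growth.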

Assays:
Assay in all cases: inhibition of tumour cell growth, NCI panel, 48 h
786-0 renal = test system: 786-0 renal
A549 NSCLC = test system: A549 NSCLC
MALME-3M melanoma = test system: MALME-3M melanoma
SK-MEL-2 melanoma = test system: SK-MEL-2 melanoma
SK-MEL-5 melanoma = test system: SK-MEL-5 melanoma
SNB-19 CNS = test system: SNB-19 CNS
SNB-75 CNS = test system: SNB-75 CNS
TK-10 renal = test system: TK-10 renal
NCI-H522 lung = test system: NCI-H522 lung
K-562 leukemia = test system: K-562 leukemia

Compound | TGI (786-0 renal) [µM] | TGI (A549 NSCLC) [µM] | TGI (MALME-3M melanoma) | TGI (SK-MEL-2 melanoma) [µM] | TGI (SK-MEL-5 melanoma) [µM] | TGI (SNB-19 CNS) [µM] | TGI (SNB-75 CNS) [µM] | TGI (TK-10 renal) [µM] | TGI (NCI-H522 lung) [µM] | TGI (K-562 leukemia) [µM] | GI50 (786-0 renal) [µM] | GI50 (A549 NSCLC) [µM] | GI50 (K-562 leukemia) [µM] | GI50 (MALME-3M melanoma) | GI50 (NCI-H522 lung) [µM] | GI50 (SK-MEL-2 melanoma) [µM] | GI50 (SNB-19 CNS) [µM] | GI50 (SNB-75 CNS) [µM] | GI50 (TK-10 renal) [µM] | GI50 (SK-MEL-5 melanoma) [µM]
CCOc1ccc(NC(=O)CC2SC(N)=NC2=O)cc1 (stereo not given) | > 100 | > 100 | > 100 µM | > 100 | > 100 | > 100 | > 100 | > 100 |  |  |  |  |  |  |  |  |  |  |  | 
COc1cc(Oc2c(O)c(C)c(OC)c(C(C)=O)c2O)c(C(C)=O)c(O)c1C | > 100 | > 100 | > 100 µM |  | > 100 | > 100 | > 100 | 86.7 | 77.9 |  |  |  |  |  |  |  |  |  |  | 
COc1ccc2cc3n(c2c1)CCc1cc(OC)c(OC)cc1-3 | > 100 | > 100 |  | > 100 |  | > 100 |  | > 100 | > 100 | > 100 |  |  |  |  |  |  |  |  |  | 
O=C(Nc1ccc2c(c1)oc(=O)c1ccccc12)C(Cl)Cl | > 100 | > 100 | > 100 µM | > 100 | > 100 | > 100 | > 100 |  | > 100 | > 100 |  |  |  |  |  |  |  |  |  | 
COc1ccc(-c2ccc(/C=N/n3c(COc4ccc(Cl)cc4)n[nH]c3=S)o2)c([N+](=O)[O-])c1 | 44.7 | 44.1 | 37 µM | > 100 |  | 53.6 | > 100 | 37.1 | > 100 | 53.4 | 18.4 | 11.6 | 11.6 | 14.1 µM | 25.7 | 41.9 | 20.1 | 37.4 | 14.6 | 
O=C1C(=O)N(C2C3CC4CC(C3)CC2C4)C(=O)C(=O)C1c1nc2ccccc2o1 (stereo not given) | > 100 | > 100 | > 100 µM | > 100 |  | > 100 | > 100 | > 100 |  | 77.4 |  |  |  |  |  |  |  |  |  | 
FC(F)(F)C12C34C=CC5(CCC6(C=CC1(CC3)O6)C52C(F)(F)F)O4 (stereo not given) | > 100 | > 100 | > 100 µM | > 100 |  | > 100 |  | > 100 | > 100 | > 100 |  |  |  |  |  |  |  |  |  | 
CCc1c2c(nc3cccc(N)c13)-c1cc3c(c(=O)n1C2)COC(=O)[C@]3(O)CC | 1.62 | 0.504 | 2.3 µM and 3.11 µM |  |  | 0.0512 | 16.9 | 0.748 |  | > 100 | < 0.001 | 0.00817 | 0.00244 | 0.0448 µM and 0.011 µM | 0.00459 |  | 0.00176 | 0.0158 |  | 0.00329
CC(C)[C@@H](COC(C)(C)C)N=CN1CCc2c([nH]c3ccccc23)C1 | > 100 | > 100 |  | > 100 | > 100 | > 100 | > 100 | > 100 | > 100 | > 100 |  |  |  |  |  |  |  |  |  | 
C/C1=C\CC[C@@](C)(O)[C@@H]2CC3[C@@H](OC(=O)C34CC4)[C@@H](O2)[C@H](C)CCC1 (stereo not given in full) | 29.8 | 77.6 | 39.3 µM | 34.4 | 30.7 | > 100 | > 100 |  | 28.5 | > 100 | 16.2 | 24.5 | 35.1 | 13.5 µM | 12.7 | 16.2 | 58.6 | 41.9 |  | 10.6
CS(=O)(=O)Nc1cc(-c2ccc3ncnc(Nc4ccc5c(cnn5Cc5ccc(F)cc5)c4)c3c2)cnc1Cl | 19.9 | 63.8 | 2.92 µM | 3.28 | 2.89 | 12.2 | 2.97 |  | 12.8 | 12.7 | 2.22 | 3.38 | 1.4 | 0.441 µM | 1.79 | 1.09 | 1.81 | 0.211 |  | 1.52
Fc1ccc(Nc2nccc(-c3c(-c4ccc(C(F)(F)F)cc4)nn4ncccc34)n2)cc1F | > 25 | > 25 | > 25 µM |  | > 25 | > 25 | > 25 | > 25 | > 25 | > 25 | > 25 | > 25 | > 25 | > 25 µM | > 25 |  | > 25 | > 25 | > 25 | > 25
Nc1nc(OCc2ccccc2)nc2[nH]ncc12 | 44.4 | > 100 |  | 47.9 | 28.3 | 83.2 |  | 14.2 | > 100 | > 100 | 18.7 | 27.7 | 19.7 |  | 25.5 | 20.3 | 26.3 |  | 1.39 | 14.9
O=C(Nc1cc(Cl)c(Cl)cc1Cl)C(=O)C(C(=O)c1ccc(Cl)c(Cl)c1)C1OC(=O)c2ccccc21 (stereo not given) | 27.3 | > 100 |  | 28.6 |  | 49.8 |  | 52 | 23.3 | 63.9 |  |  |  |  |  |  |  |  |  | 
CCCCCCCCCCCCC(=O)[O-].CCCCCCCCCCCCC(=O)[O-].CCCCCCCCCCCCC(=O)[O-].CCCCCCCCCCCCC(=O)[O-].[Mo+2].[Mo+2] | 16 | 44.2 | 28 µM | 28 |  | > 100 |  | 94.6 |  | 79.8 | 3.68 | 14.9 | 10.9 | 11.4 µM |  | 12.2 | 26.5 |  | 32.6 | 
CC(CCCOC(c1ccccc1)(c1ccccc1)c1ccccc1)OC(=O)Nc1cc([N+](=O)[O-])cc([N+](=O)[O-])c1 (stereo not given) | 94.9 | > 100 | 83.2 µM | 78.9 | 44.6 | > 100 | 72.5 |  | 59.5 | > 100 |  |  |  |  |  |  |  |  |  | 
CC1=CC(=O)C(C(C)=Nc2ccccc2Cl)C(=O)O1 (stereo not given) | > 100 | > 100 | > 100 µM |  | > 100 | > 100 |  | > 100 | > 100 | > 100 | > 100 | > 100 | > 100 | > 100 µM | > 100 |  | > 100 |  | > 100 | > 100
Cc1cn2c(/C=N/N/C(N)=N\N)c(-c3ccc(Cl)c([N+](=O)[O-])c3)nc2s1 | 1.73 |  |  | 23.4 | 16.4 | 18.6 |  | 30.7 | 32.1 | > 50 | 0.859 |  | 2.17 |  | 4.58 | 7.63 | 2.05 |  | 5.82 | 4.29
